Source: the supplement of paper PMC3974653
Counter-ions that a name gives are not always drawn.

system: MTT (mouse pheochromocytoma); assay: IC50 of cell viability (ATP content); details: (24 or 48 h)
Summary of the method: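 Library compounds in DMSO (23 nl by pintool, 8 concentrations, final 0.5 nM to 46 µM) were applied for 24 or 48 hrs to MTT mouse pheochromocytoma cells that had been cultured overnight at 37°C, 5% CO2 in white 1536-well plates. Cell viability was measured by CellTiter-Glo ATP luminescence, read after 15 minutes, with positive-control wells set at 100% and DMSO wells at 0%. A four-parameter logistic fit of the normalised signals yielded the IC50.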

Structure (SMILES) | IC50 of cell viability [µM]
C=CCOc1ccccc1OC[C@H](O)CNC(C)C [Oxprenolol hydrochloride] | > 46
COc1ccccc1O [2-Methoxyphenol] | > 46
CC(=O)Oc1ccccc1C(=O)O [Acetylsalicylic acid] | > 46
COC(=O)C(CN)c1c[nH]c2ccc(OC)cc12 (centres undefined) [Indorenate hydrochloride] | > 46
CCCCCCCCNC(C)C(O)c1ccc(SC(C)C)cc1 (centres undefined) [SULOCTIDIL] | > 46
CCOC(=O)c1ccc(C#Cc2ccc3c(c2)C(C)(C)CCS3)nc1 [TAZAROTENE] | > 46
O=C1/C=C(OC2=CC=CC=C12)/C3=CC=CC=C3 [Flavone] | > 46
C[N+](C)(C)CC(=O)[O-].Cl [BETAINE HYDROCHLORIDE] | > 46
Oc1ccc2c3c1O[C@H]1[C@@H](O)CC[C@@]4(O)C(C2)N(CC2CCC2)CCC314 (some centres undefined) [NALBUPHINE] | > 46
CC(=O)CCCCn1c(=O)c2c(ncn2C)n(C)c1=O [Pentoxifylline] | > 46
CN1[C@@H]2C[C@H](OC(=O)[C@@H](CO)c3ccccc3)C[C@@H]1[C@H]1O[C@H]12 [scopolamine] | > 46
C1CCC(NC2CCCCC2)CC1 [Dicyclohexylamine] | > 46
O=C1Nc2ccc(Cl)cc2C(c2ccccc2)=NC1O (centres undefined) [Oxazepam] | > 46
CC(=O)N[S+](=O)([O-])c1ccc(N)cc1 [Sulfacetamide] | > 46
COc1ccc(-c2cc(=S)ss2)cc1 [ANETHOLE TRITHIONE] | > 46
CSc1ccc2c(c1)C(N1CCN(C)CC1)Cc1ccccc1S2 (centres undefined) [METHIOTHEPIN] | > 46
CN1CCC[C@@H]1Cc1c[nH]c2ccc(CC[S+](=O)([O-])c3ccccc3)cc12 [ELETRIPTAN HYDROBROMIDE] | > 46
CO[C@@H]1C[C@H](O[C@H]2[C@H](C)[C@H](O[C@@H]3O[C@@H](C)C[C@@H](N(C)C)[C@H]3OC(C)=O)[C@H](C)C[C@]3(CO3)C(=O)[C@H](C)[C@H](OC(C)=O)[C@H](C)[C@H](C)OC(=O)[C@@H]2C)O[C@H](C)[C@H]1OC(C)=O [Troleandomycin] | > 46
CN1CCO[C@H](c2ccccc2)c2ccccc2C1 [Nefopam hydrochloride] | > 46
[H][C@]12CC[N@@]3CC=C(COC(=O)[C@](C)(O)[C@](C)(O)[C@@]([H])(C)C(=O)O1)[C@]23[H] [Monocrotaline] | > 46
CNC(C)(C)Cc1ccccc1 [Mephentermine hemisulfate] | > 46
CCN(CC)CCOC(=O)C(c1ccccc1)C1CCCCC1.Cl (centres undefined) [DROFENINE HYDROCHLORIDE] | > 46
C[C@]\12CCC(=O)\C=C1CCC3C4CC[C@](O)(C(=O)CO)[C@]4(C)CC(=O)C23 (some centres undefined) [CORTISONE] | > 46
NCCCNCCSP(=O)(O)O [Amifostine] | > 46
O=C(CCCN1CCN2CCCC2C1)c1ccc(F)cc1 (centres undefined) [Azabuperona] | > 46
CCCN1CCC[C@H](c2cccc(O)c2)C1.Cl [R(+)-3PPP hydrochloride] | > 46
C=CC1=C(C(=O)O)N2C(=O)[C@@H](NC(=O)C(N=O)c3csc(N)n3)[C@H]2SC1 (some centres undefined) [Cefdinir] | > 46

Further lines, results first:

IC50 of cell viability [µM] | Structure (SMILES)
> 46 | CCC[C@H]1C[C@H](C(=O)NC(C(C)Cl)C2O[C@@H](SC)C(OP(=O)(O)O)[C@@H](O)[C@@H]2O)N(C)C1 (some centres undefined) [CLINDAMYCIN PO4]
> 46 | CC(O)C(N)C(=O)O (centres undefined) [THREONINE]
> 46 | CCC(=O)O[C@]1(C(=O)CCl)[C@@H](C)CC2C3C[C@H](F)C4=CC(=O)C=CC4(C)[C@@]3(F)C(O)CC21C (some centres undefined) [HALOBETASOL PROPIONATE]
> 46 | N=C(N)NCCC[C@H](N)C(=O)O [L-Arginine]
> 46 | CCN(CC)CCNC(=O)c1ccc(N[S+](C)(=O)[O-])cc1.Cl.O [Sematilide monohydrochloride monohydrate]
> 46 | CN(C)[C@H]\1[C@@H]2C[C@H]3\C(=C(\O)[C@@]2(O)C(=O)\C(=C1O)C(N)=O)C(=O)C4=C(O)C=CC(=C4[C@]3(C)O)Cl [Chlortetracycline hydrochloride]
> 46 | CCC(C)CCCCC(=O)N[C@@H](CC[NH3+])C(=O)N[C@H](C(=O)N[C@@H](CC[NH3+])C(=O)N[C@H]1CCNC(=O)C([C@@H](C)O)NC(=O)[C@@H](CCN)NC(=O)[C@H](CCN)NC(=O)[C@H](CC(C)C)NC(=O)[C@@H](CC(C)C)NC(=O)[C@H](CCN)NC1=O)[C@@H](C)O (some centres undefined) [Polymyxin E1]
> 46 | CN1CCc2c(c3ccccc3n2Cc2ccccc2)C1.CN1CCc2c(c3ccccc3n2Cc2ccccc2)C1.O=[S+]([O-])(O)c1cccc2c([S+](=O)([O-])O)cccc12 [Mebhydroline 1,5-naphtalenedisulfonate]
> 46 | CC(C)CC(NC(=O)C(COC(C)(C)C)NC(=O)C(Cc1ccc(O)cc1)NC(=O)C(CO)NC(=O)C(Cc1c[nH]c2ccccc12)NC(=O)C(Cc1cnc[nH]1)NC(=O)C1CCC(=O)N1)C(=O)NC(CCCN=C(N)N)C(=O)N1CCCC1C(=O)NNC(N)=O (centres undefined) [GOSERELIN ACETATE]
> 46 | O=C(c1ccc(OCCN2CCCCC2)cc1)c1c(-c2ccc(O)cc2)sc2cc(O)ccc12 [Raloxifene hydrochloride]
> 46 | C[C@]12CCC3C(CCC/4=C/C(=O)CCC34)C1CC[C@@]2(O)C#C (some centres undefined) [NORETHINDRONE]
> 46 | [O-]C(=O)C/1=C(CSC2C(NC(=O)CC3=CC=CS3)C(=O)N12)\C[N+]4=CC=CC=C4 (centres undefined) [CEPHALORIDINE]
> 46 | CC(C)(C)c1ccc2c(S(=O)(=O)[O-])c(C(C)(C)C)ccc2c1 [DIBUNATE SODIUM]
> 46 | Cc1nc([N+](=O)[O-])cn1-c1ccc([N+](=O)[O-])cc1 [Nitrefazole]
> 46 | C[C@H]/1C[C@H]2[C@H]3CC[C@@H](C(C)=O)[C@]3(C)C[C@@H](O)[C@@H]2[C@]4(C)CCC(=O)\C=C14 [Medrysone]
> 46 | C\C1=C\N([C@H]2C[C@H](N=[N+]=[N-])[C@@H](CO)O2)C(=O)NC1=O [ZIDOVUDINE]
> 46 | Cc1c(C)c2c(c(C)c1OC(=O)CCC(=O)OCCO)CC[C@](C)(CCC[C@H](C)CCC[C@H](C)CCCC(C)C)O2 [Tocofersolan]
> 46 | CCOc1cc(-c2nccc3cc(OC)c(OC)cc23)cc(OCC)c1OCC [OCTAVERINUM]
> 46 | C[C@@H]1C[C@@H]2[C@H]3CC\C4=C\C(=O)\C=C/[C@]4(C)[C@]3(F)[C@@H](O)C[C@@]2(C)[C@@]1(O)C(=O)COC(C)=O [Dexamethasone acetate]
> 46 | CN/C(=N/C#N)NCCSCc1csc(N=C(N)N)n1 [TIOTIDINE]
> 46 | Fc1ccc(C2CCNCC2COc2ccc3c(c2)OCO3)cc1 (centres undefined) [Paroxetine]
> 46 | CCCC(=O)Nc1ncnc2c1ncn2C1OC2COP(=O)(O)OC2C1OC(=O)CCC (centres undefined) [BUCLADESINE]
